Measurements taken from US6255324A, “Amino-and mercurio-substituted 4',5'-dihydropsoralens and therapeutical uses thereof” (priority 1998, dated 2001).
Where two headings read alike, the source gives them in different places.

Tests used:
[1] = test system: Mycobacterium tuberculosis H37Rv; assay: Antituberculosis primary in vitro screen, BACTEC 460; format: cell-based, Mycobacterium tuberculosis H37Rv ATCC 27294; conditions: 12.5 μg/mL, 37° C
PAM 212 keratinocytes [2] = assay: PAM 212 keratinocyte growth inhibition (photo-toxicity with UVA / dark-toxicity without light); format: cell-based; conditions: UVA 320-400 nm, 1.28 J/cm2, growth 4-5 days
Description: Representative examples of the compounds described and claimed herein were tested in this assay for biological activity and found to be potent inhibitors of cell growth. Inhibition of cell growth was rapid, dependent on concentration, and required light activation. […] A description of this assay follows.
The photobiological activity was assayed using a keratinocyte cell line grown in a monolayer culture. In this assay, PAM 212 keratinocytes were grown in Dulbecco's Modified Eagle's medium supplemented with 10% newborn calf serum in a 5% carbon dioxide incubator. Cells were inoculated into 6-well Falcon plastic culture dishes at 25,000 cells per well. After 24 hours, the medium was charged to fresh growth medium supplemented with increasing concentrations of the test compounds or the control medium. Controls and test concentrations were analyzed in triplicate.
These plates were then incubated in a 37 degree C. carbon dioxide incubator. After 30 minutes culture plates were exposed to UVA light (UVA, 320-400 nm) emitted from a bank of four BLB fluorescent light tubes (F40 BL, Sylvania) placed approximately 10 cm above the cell culture plates. The incident light on the culture plates was 2.4 mW/cm^2 as measured with an International Light UV radiometer, Model IL 442A. The cells were exposed to 1.28 J/square centimeter of UVA.
After completion of the irradiation phase, the cell culture medium was drained, the cells refed with fresh growth medium and then re-incubated in the carbon dioxide incubator to allow for cell growth. After 4-5 days of growth the culture plates were removed from the incubator and the cell culture medium was drained. The cells were detached from the plates with trypsin and counted in a Coulter Counter. For control cells or for cells treated with test compounds, cell growth was determined as a percentage of control. […] This value is shown in Table I for a variety of phototherapeutics.

Aspergillus niger = assay: Fungicidal assay, MIC against Aspergillus niger in MSY broth; format: cell-based; conditions: Table II, four days at 28° C, in the dark, no unit in table (ppm levels)
Description: The antifungal activities of compounds synthesized were measured by determining the inhibition of growth of Aspergillus niger in a standard liquid medium. The liquid growth medium is described as a solution of mineral salts and yeast extract (MSY). The MSY broth was prepared as described in ASTM G21-70, and amended with glucose (10 g/l) and yeast extract (1 g/l). An aliquot ([…]) of sterile medium was dispensed into each test well of a standard 96 well microplate (Corning No. 430247). Stock solutions of test compounds were prepared by dissolving the materials in 9:1 (v/v) solutions of acetone:methanol. Appropriate volumes of stock solutions were added to the test wells in order to achieve the desired ppm levels. Each test well (plus controls) was then inoculated with […] of a standardized suspension of Aspergillus niger. The cell suspension was prepared by suspending viable cells from a slant of potato dextrose agar into sterile, deionized water. The suspension was then adjusted to provide OD686 =0.28. This density contains approximately 2.5×10^7 CFU (colony forming units)/ml. The microplates were incubated in the dark for four days at 28° C. The optical density for each well at 686 nm was then recorded automatically using a SpectraMax 340 microplate reader (Molecular Devices Corp., Sunnyvale, Calif.). All wells were visually inspected in order to corroborate data from the instrument.
The antifungal activity was measured as minimum inhibitory concentrations or MIC of the 5'-substituted-4',5'-dihydropsoralens.

PAM 212 keratinocytes [3] = assay: PAM 212 keratinocyte growth inhibition (photo-toxicity with UVA / dark-toxicity without light); format: cell-based
Chlorella vulgaris = assay: Algicidal assay, MIC against Chlorella in modified Allen's medium; format: cell-based; conditions: Table III, 14 days, 26 to 28° C, no unit in table (ppm)
Description: To assay the activity of the 5'-substituted-4',5'-dihydropsoralens of the invention against Chlorella, the Allen method (A. A. Allen, […], Journal of Phycology, 4, 1-4) was employed. […] The minimum inhibitory concentration (MIC) of the compounds tested against the fungus Aspergillus niger using an MSY broth is shown in Table II.
Test tubes containing modified Allen's medium were treated with increasing dosages of the compound to be tested and inoculated with a suspension of algal cells. After fourteen days of incubation, algal growth was rated as positive or negative. The minimum inhibitory concentration (MIC) of the compound is the smallest dosage showing negative algal growth.
The apparatus required consisted of sterilized test tubes, 18-150 mm and an incubator, capable of a constant (±2° C.) temperature within 26 to 28° C. The following procedure was used:
(1) Stock solutions (g/200 g deionized water each) were generated with: K2 HPO4, 1.50 g; MgSO4, 7H2 O, 1.50 g; Na2 CO3, 0.80 g; CaCl2 2H2 O, 0.50 g; Na2 SiO3 9H2 O, 1.16 g, and Citric acid, 1.20 g.
(3) The modified Allen's medium was prepared in a volumetric flask by the addition of 1.5 g NaNO3, 5.0 mL stock solution K2 HPO4, 5.0 mL stock solution MgSO4 -- 7H2 O, 5.0 mL Stock solution Na2 CO3, 10.0 mL stock solution CaCl2 2H2 O, 10.0 mL stock solution Na2 SiO3 9H2 O, 1.0 mL stock solution Citric acid and 1.0 mL stock solution PIV metal with enough deionized water to make 1000 mL of medium (Allen, 1968). The pH was adjusted to 7.8 and 5 mL of medium is added to each test tube. The tubes were sterilized in the autoclave for 20 minutes at 15 psi at 121° C. The test tubes were allowed to cool to 45-50° C. before adding the test compound and the inoculurn to the medium.
(4) The inoculum was a cell suspension from a 14-day-old culture of Chlorella vulgaris (UTEX 26, University of Texas) that was grown in modified Allen's medium.
The concentration of the stock solution in water or acetone of the compound to be tested is dependent on the largest dose required to be tested. Dilutions of the stock solution were made so that 100 μL of the stock solution of the corresponiding dilution was added per test tube. 100 μL of the solvent was added to the control to prepare the stock solution.
The inoculation consists of the addition of 100 μL of inoculurn per test tube.
The incubation of the control test tube and the test tubes containing compound and inoculum occurred in an incubator set between 26 to 28° C., with the temperature not varying more than ±2° C. Light was provided by plant growth fluorescent tubes and the test tubes were allowed to stand in the incubator for 14 days.
Rating of the test tubes containing different dosages of the compound will be positive or negative. […] If the medium in the rubes remains colorless, a negative (not contaminated) rating is given. The control is always positive. The minimum inhibitory concentration (MIC) of the compound is determined to be the smallest dosage showing negative algal growth.

`[I][Hg][CH2]C1Cc2ccccc2O1` (centres unmarked) [T = HgI, 2-Iodomercurimethyl-2,3-dihydrobenzofuran] was tested, and the “Anti-tubercular Activity (% inhibition)” value [1] was 99%, the IC50 (PAM 212 keratinocytes [2]) was 5.7 µM and the MIC (Aspergillus niger) was less than 8. It also gave an IC50 (PAM 212 keratinocytes [3]) of 12 µM and an MIC (Chlorella vulgaris) of 10.
